Assay results published in PMC8878047 (Pharmaceutics, 2022).
In brackets after ≈: the same amount, converted by molar mass. Read-outs that look alike come from different tables or passages of the source.

Legend:
[1] = Water solubility by UV-Vis (Lambert–Beer law); assay type: physicochemical; conditions: thermodynamic from solid, saturated aqueous solution, 30× dilution, room temperature / 35 °C (method)
Text: We diluted this solution into a series of working solutions to measure their UV-Vis spectra.

[2] = Method: All tests were conducted in the animal experimental center of Guangxi Medical University. Preliminary experiments were needed before starting official tests. […] Groups of mice (n = 10 per group, half male and half female) received different doses of the tested compounds by gavage at the same single dose of drug solution, which was uniformed to be […] (drug solution)/10 g, but containing different concentration of tested drugs. […] We compared these mice with the control group in which the mice were not given drugs, according to the pre-experimental procedure. We closely observed the mice for 6 h after the gavage for signs of toxicity and mortality. As soon as death occurred among the maximum-dose group, we conducted an autopsy and took samples from the main organs for histopathological examination. In addition, we monitored all of the tested mice for 2 weeks to record their weight and mortality.
[3] = system: wild type AB strain zebrafish; conditions: 30 embryos per well
Method: Zebrafish were incubated and grown in the Joint Laboratory established by Shandong Rui’ying Pharmaceutical Group (Heze, China) and China Pharmaceutical University. Both the Wild-type AB (Danio rerio) and Tg(mpx:eGFP) zebrafish strains were maintained under the guidance of the standard procedures of The Zebrafish Book. […] Then the zebrafish were allowed to naturally mate and spawn the next morning. The normally born embryos were then collected after 1 h and kept in an incubating system at 28 °C. The 6 hpf (hour post fertilization) embryos were transferred into a 6-well plate exposed to 5 mL of egg water, in which 30 embryos were in each well.

[4] = system: neutrophil cluster aggregation; experiment: CuSO4-induced inflammation model in Tg(mpx:eGFP) zebrafish; conditions: 10 μM CuSO4 40 min, Tg(mpx:eGFP) 3 dpf
[5] = system: H2O2-induced ROS production; experiment: H2O2-induced oxidative stress model in zebrafish (DCFH-DA); conditions: 48 h pre-treatment, H2O2 1.0 mM 4 h, H2O2-induced 17,250, control 590
[6] = Pharmacokinetic study in plasma after oral administration (HPLC-MS); conditions: SD rats, plasma, EFX 10 mg/kg, EFX-Ca 12 mg/kg
E. coli [7] = experiment: Quasi-clinical trial on E. coli-infected AA broilers (drug-mixed feeding); conditions: AA broilers
Method: (§1) Then, broilers were randomly and equally divided into five different groups and marked as five groups. […] Note that the daily drug-mixed feeding ratio (g drug/kg feed) was indicated for the first 4 h every day, and unmedicated feed then followed. In addition, E. coli strains for the infection of chicken was supplied as a freeze-dried powder. They were revived and cultured according to the standard procedures. The strain was inoculated into a liquid medium and cultured in a 37 °C incubator for 6–8 h. We detected the concentration of the bacterial liquid to be 2.8 × 10^8 CFU/mL as the pathogenic concentration. Finally, all of the chickens except the healthy control group were intramuscularly injected with 0.5 mL of pathogenic bacteria, and all chickens were fasted for 4 h. After successfully simulating the bacterial infection of the chickens, the drug-mixed feeding chickens were continuously fed for 6 d. During this time, we observed their behavioral habits, mortality, and recovery rates.

E. coli [8] = experiment: Quasi-clinical trial on E. coli-infected 817 broilers (drug-mixed feeding); conditions: 817 broilers
Method: as §1

[9] = 0.01 μM medicated bath, 120 hpf

Compound: CCN1CCN(c2cc3c(cc2F)c(=O)c(C(=O)O)cn3C2CC2)CC1 [EFX, enrofloxacin, reference compound]
- solubility [1]: 204 µg/mL (≈ 568 µM)
- Body Weight (g, x¯ ± SD) ([2]; 2000 mg/kg single gavage, Day-0): 18.35 ± 1.87 g
- Body Weight (g, x¯ ± SD) ([2]; 2000 mg/kg single gavage, Day-1): 20.21 ± 2.06 g
- Body Weight (g, x¯ ± SD) ([2]; 2000 mg/kg single gavage, Day-4): 25.19 ± 1.81 g
- Body Weight (g, x¯ ± SD) ([2]; 2000 mg/kg single gavage, Day-7): 28.89 ± 1.99 g
- Body Weight (g, x¯ ± SD) ([2]; 2000 mg/kg single gavage, Day-14): 36.93 ± 3.07 g
- Body Weight (g, x¯ ± SD) ([2]; 3031 mg/kg single gavage, Day-0): 18.40 ± 1.78 g
- Body Weight (g, x¯ ± SD) ([2]; 3031 mg/kg single gavage, Day-1): 19.20 ± 2.18 g
- Body Weight (g, x¯ ± SD) ([2]; 3031 mg/kg single gavage, Day-4): 24.83 ± 3.08 g
- Body Weight (g, x¯ ± SD) ([2]; 3031 mg/kg single gavage, Day-7): 29.17 ± 2.51 g
- Body Weight (g, x¯ ± SD) ([2]; 3031 mg/kg single gavage, Day-14): 33.20 ± 4.46 g
- Body Weight (g, x¯ ± SD) ([2]; 4595 mg/kg single gavage, Day-0): 18.67 ± 1.05 g
- Body Weight (g, x¯ ± SD) ([2]; 4595 mg/kg single gavage, Day-1): 19.14 ± 0.96 g
- Body Weight (g, x¯ ± SD) ([2]; 4595 mg/kg single gavage, Day-4): 23.54 ± 1.44 g
- Body Weight (g, x¯ ± SD) ([2]; 4595 mg/kg single gavage, Day-7): 28.20 ± 1.52 g
- Body Weight (g, x¯ ± SD) ([2]; 4595 mg/kg single gavage, Day-14): 33.96 ± 2.53 g
- Body Weight (g, x¯ ± SD) ([2]; 6964 mg/kg single gavage, Day-0): 18.59 ± 1.34 g
- Body Weight (g, x¯ ± SD) ([2]; 6964 mg/kg single gavage, Day-1): 19.68 ± 1.06 g
- Body Weight (g, x¯ ± SD) ([2]; 6964 mg/kg single gavage, Day-4): 23.85 ± 1.88 g
- Body Weight (g, x¯ ± SD) ([2]; 6964 mg/kg single gavage, Day-7): 27.98 ± 3.40 g
- Body Weight (g, x¯ ± SD) ([2]; 6964 mg/kg single gavage, Day-14): 36.13 ± 5.35 g
- Body Weight (g, x¯ ± SD) ([2]; 16,000 mg/kg single gavage, Day-0): 18.86 ± 1.03 g
- Body Weight (g, x¯ ± SD) ([2]; 16,000 mg/kg single gavage, Day-1): 18.55 ± 1.70 g
- Body Weight (g, x¯ ± SD) ([2]; 16,000 mg/kg single gavage, Day-7): 24.35 ± 2.63 g
- Body Weight (g, x¯ ± SD) ([2]; 16,000 mg/kg single gavage, Day-14): 33.20 ± 4.00 g
- statistical death of the tested zebrafish ([3]; 0.01 μM medicated bath, 24 hpf): 6
- statistical survival of the tested zebrafish ([3]; 0.01 μM medicated bath, 24 hpf): 24
- statistical death of the tested zebrafish ([3]; 0.01 μM medicated bath, 48 hpf): 6
- statistical survival of the tested zebrafish ([3]; 0.01 μM medicated bath, 48 hpf): 24
- statistical death of the tested zebrafish ([3]; 0.01 μM medicated bath, 72 hpf): 6
- statistical survival of the tested zebrafish ([3]; 0.01 μM medicated bath, 72 hpf): 24
- statistical death of the tested zebrafish ([3]; 0.01 μM medicated bath, 96 hpf): 6
- statistical survival of the tested zebrafish ([3]; 0.01 μM medicated bath, 96 hpf): 24
- statistical death of the tested zebrafish [3, 9]: 6
- statistical survival of the tested zebrafish [3, 9]: 24
- statistical death of the tested zebrafish ([3]; 0.1 μM medicated bath, 24 hpf): 4
- statistical survival of the tested zebrafish ([3]; 0.1 μM medicated bath, 24 hpf): 26
- statistical death of the tested zebrafish ([3]; 0.1 μM medicated bath, 48 hpf): 4
- statistical survival of the tested zebrafish ([3]; 0.1 μM medicated bath, 48 hpf): 26
- statistical death of the tested zebrafish ([3]; 0.1 μM medicated bath, 72 hpf): 4
- statistical survival of the tested zebrafish ([3]; 0.1 μM medicated bath, 72 hpf): 26
- statistical death of the tested zebrafish ([3]; 0.1 μM medicated bath, 96 hpf): 4
- statistical survival of the tested zebrafish ([3]; 0.1 μM medicated bath, 96 hpf): 26
- statistical death of the tested zebrafish ([3]; 0.1 μM medicated bath, 120 hpf): 4
- statistical survival of the tested zebrafish ([3]; 0.1 μM medicated bath, 120 hpf): 26
- statistical death of the tested zebrafish ([3]; 1 μM medicated bath, 24 hpf): 2
- statistical survival of the tested zebrafish ([3]; 1 μM medicated bath, 24 hpf): 28
- statistical death of the tested zebrafish ([3]; 1 μM medicated bath, 48 hpf): 2
- statistical survival of the tested zebrafish ([3]; 1 μM medicated bath, 48 hpf): 28
- statistical death of the tested zebrafish ([3]; 1 μM medicated bath, 72 hpf): 2
- statistical survival of the tested zebrafish ([3]; 1 μM medicated bath, 72 hpf): 28
- statistical death of the tested zebrafish ([3]; 1 μM medicated bath, 96 hpf): 2
- statistical survival of the tested zebrafish ([3]; 1 μM medicated bath, 96 hpf): 28
- statistical death of the tested zebrafish ([3]; 1 μM medicated bath, 120 hpf): 2
- statistical survival of the tested zebrafish ([3]; 1 μM medicated bath, 120 hpf): 28
- statistical death of the tested zebrafish ([3]; 10 μM medicated bath, 24 hpf): 2
- statistical survival of the tested zebrafish ([3]; 10 μM medicated bath, 24 hpf): 28
- statistical death of the tested zebrafish ([3]; 10 μM medicated bath, 48 hpf): 2
- statistical survival of the tested zebrafish ([3]; 10 μM medicated bath, 48 hpf): 28
- statistical death of the tested zebrafish ([3]; 10 μM medicated bath, 72 hpf): 2
- statistical survival of the tested zebrafish ([3]; 10 μM medicated bath, 72 hpf): 28
- statistical death of the tested zebrafish ([3]; 10 μM medicated bath, 96 hpf): 2
- statistical survival of the tested zebrafish ([3]; 10 μM medicated bath, 96 hpf): 28
- statistical death of the tested zebrafish ([3]; 10 μM medicated bath, 120 hpf): 2
- statistical survival of the tested zebrafish ([3]; 10 μM medicated bath, 120 hpf): 28
- statistical death of the tested zebrafish ([3]; 20 μM medicated bath, 24 hpf): 4
- statistical survival of the tested zebrafish ([3]; 20 μM medicated bath, 24 hpf): 26
- statistical death of the tested zebrafish ([3]; 20 μM medicated bath, 48 hpf): 4
- statistical survival of the tested zebrafish ([3]; 20 μM medicated bath, 48 hpf): 26
- statistical death of the tested zebrafish ([3]; 20 μM medicated bath, 72 hpf): 4
- statistical survival of the tested zebrafish ([3]; 20 μM medicated bath, 72 hpf): 26
- statistical death of the tested zebrafish ([3]; 20 μM medicated bath, 96 hpf): 4
- statistical survival of the tested zebrafish ([3]; 20 μM medicated bath, 96 hpf): 26
- statistical death of the tested zebrafish ([3]; 20 μM medicated bath, 120 hpf): 4
- statistical survival of the tested zebrafish ([3]; 20 μM medicated bath, 120 hpf): 26
- CuSO4-induced neutrophil aggregation ([4]; 0.1 μM pre-incubation 1 h): still maintained obvious clustering status
- CuSO4-induced neutrophil aggregation ([4]; 1 μM pre-incubation 1 h): partial aggregations of the neutrophils could be observed
- Average IOD (integrated optical density) of green fluorescence ([5]; 0.01 μM): 970 a.u.
- Average IOD (integrated optical density) of green fluorescence ([5]; 0.1 μM): 772 a.u.
- Average IOD (integrated optical density) of green fluorescence ([5]; 1 μM): 848 a.u.
- Ke [6]: 0.28
- t 1/2β [6]: 2.43 H
- Average Final Weight (E. coli [7]; EFX single dosage 11 g + 1.5 kg feed): 1880 ± 113 g
- Average Weight Gain (E. coli [7]; EFX single dosage 11 g + 1.5 kg feed, Table 7): 380
- Average Increment of Weight (E. coli [7]; EFX single dosage 11 g + 1.5 kg feed, Table 8): 250 g
- Cure Rate (%) (E. coli [7]; EFX single dosage 11 g drug (5% solution) + 1.5 kg feed/4 h, 6 d): 62%
- Survival Number (E. coli [7]; EFX single dosage 11 g drug (5% solution) + 1.5 kg feed/4 h, 6 d, 50 per group): 31
- Average Final Weight (E. coli [8]; EFX single dosage 11 g + 0.75 kg feed): 1030 ± 74 g
- Average Weight Gain (E. coli [8]; EFX single dosage 11 g + 0.75 kg feed, Table 7): 100
- Average Increment of Weight (E. coli [8]; EFX single dosage 11 g + 0.75 kg feed, Table 8): 140 g
- Cure Rate (%) (E. coli [8]; EFX single dosage 11 g drug (5% solution) + 0.75 kg feed/4 h, 6 d): 64%
- Survival Number (E. coli [8]; EFX single dosage 11 g drug (5% solution) + 0.75 kg feed/4 h, 6 d, 50 per group): 32
